The source of these data is ChEMBL document CHEMBL1201862, “PubChem BioAssay data set” (2004).

Test [1] deals with Muscarinic acetylcholine receptor M1 (Rattus norvegicus, UniProt P08482). The experiment in a line: concentration-dependent potentiation of ACh at M1 – cell-based, calcium mobilization, CHO-K1, ACh EC20, dose response (AID 2425). Type of test: functional.
Test [2] is described as follows: M. tuberculosis growth inhibition, HTS (AID 449762). Type of test: functional.
Test [3] in a line: microbe, parasite or virus in culture. Type of test: functional. Conditions: Mycobacterium tuberculosis.
Another test deals with Estrogen receptor beta (Homo sapiens, UniProt Q92731). Put plainly: blockers of SRC-3 recruitment to ERβ – biochemical, ELISA, streptavidin-HRP readout, orthogonal assay, confirmation (AID 1060). (An ELISA detects its analyte on a solid surface through an enzyme-linked reagent.)
The target in test [4] is T1, Induced myeloid leukemia cell differentiation protein Mcl-1 (Homo sapiens, UniProt Q07820). Type of test: functional.
In the next test the target is Ephrin type-A receptor 4 (Mus musculus, UniProt Q03137). Put plainly: EphA4 ligand-binding antagonists – biochemical, colorimetric, mouse EphA4, primary screen (AID 689). Type of test: functional.
For test [5], the target named is T2, Tyrosine-protein phosphatase non-receptor type 7 (Homo sapiens, UniProt P35236).
T2 sequence (P35236 whole entry): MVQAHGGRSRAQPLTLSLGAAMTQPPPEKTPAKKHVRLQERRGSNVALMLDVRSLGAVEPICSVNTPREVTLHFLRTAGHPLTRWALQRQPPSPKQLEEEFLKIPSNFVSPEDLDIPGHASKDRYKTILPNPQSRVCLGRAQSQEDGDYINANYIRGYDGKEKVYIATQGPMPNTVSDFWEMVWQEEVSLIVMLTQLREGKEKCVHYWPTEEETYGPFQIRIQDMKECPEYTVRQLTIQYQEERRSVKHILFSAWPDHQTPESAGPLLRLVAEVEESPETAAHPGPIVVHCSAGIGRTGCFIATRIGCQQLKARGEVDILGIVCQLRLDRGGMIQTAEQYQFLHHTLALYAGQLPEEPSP
The experiment in a line: redox-active compounds inhibiting HePTP phosphatase – biochemical, fluorescence, mechanism study (AID 2068). Type of test: functional.

Test [6] can be described thus: viability loss in HEK293T cells – cell-based, cherry-picks, cytotoxicity control for HIV Vif inhibitor project, dose response (AID 652208). The test is classed as functional.
Test [7] addresses E3 ubiquitin-protein ligase Mdm2 (Homo sapiens, UniProt Q00987). Put plainly: MDM2-luc reporter signal enhancers, multi-concentration potency testing, MDM2 ubiquitin-protein ligase inhibitor program, whole-cell format, luminescence detection, 384-well microplate (AID 1394).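 Also: MDM2 E3 inhibitors raise luminescence so EC50 is for signal enhancement.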 Type of test: functional.
The nature of test [8]: non-specific 3'UTR reporter inhibition in Clone20-Shn3RL – cell-based, Renilla luciferase, cherry-picked, counter-screen for Shn3 inhibitor project, dose response (AID 624133). The test is classed as functional. A general note: Counterscreens check selectivity or assay interference.
Test [9] in a line: reduction of Shn3 3'UTR-driven luciferase in osteoblasts – cell-based, Clone20 osteoblasts, firefly luciferase, cherry-picked, dose response (AID 624132).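 Also: firefly luciferase luminescence from reporter carrying the Shn3 3'UTR in osteoblasts.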 The test is classed as functional.
The target of test [10] is T3, Carboxy-terminal domain RNA polymerase II polypeptide A small phosphatase 1 (Homo sapiens, UniProt Q9GZU7).
T3 sequence (Q9GZU7 whole entry): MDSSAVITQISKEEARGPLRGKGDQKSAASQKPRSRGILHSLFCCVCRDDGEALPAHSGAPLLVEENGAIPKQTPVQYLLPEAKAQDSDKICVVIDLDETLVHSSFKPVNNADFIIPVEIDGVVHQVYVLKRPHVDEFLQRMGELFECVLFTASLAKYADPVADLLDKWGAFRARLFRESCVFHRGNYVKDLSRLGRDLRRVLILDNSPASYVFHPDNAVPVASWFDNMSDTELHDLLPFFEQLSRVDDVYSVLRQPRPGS
The experiment in a line: CTDSP1 inhibitors, concentration-response, biochemical, absorbance readout, ultra-high-throughput screen actives (AID 540297). Type of test: functional.

Test [11] has as its target T1, Induced myeloid leukemia cell differentiation protein Mcl-1. Put plainly: blockers of MCL1 binding to BIM peptide – biochemical, fluorescence polarization, BIM-BH3 peptide, 1536-well, dose response (AID 2217).
The next test deals with Caspase-7 (Homo sapiens, UniProt P55210). Put plainly: caspase-7 enzyme inhibition, selectivity check – biochemical, DEVD-R110 fluorescence, cherry-pick, selectivity assay for caspase-6 inhibitor project, dose response (AID 743295). Type of test: functional.
A further test concerns the target Bcl-2-like protein 1 (Homo sapiens, UniProt Q07817). Put plainly: blockers of BCLXL peptide binding – biochemical, fluorescence polarization, 1536-well, selectivity assay for MCL1 inhibitor project, dose response (AID 2218).
For the next test, the target named is Caspase-8 (Homo sapiens, UniProt Q14790). The experiment in a line: inhibitors of purified CASP8 protease – biochemical, Z-IETD-R110 fluorescence, cherry-picked samples, selectivity assay for caspase-6 inhibitor project, dose response (AID 743294).
In a further test the target is T4, Caspase-6 (Homo sapiens, UniProt P55212).
T4 sequence (P55212 whole entry): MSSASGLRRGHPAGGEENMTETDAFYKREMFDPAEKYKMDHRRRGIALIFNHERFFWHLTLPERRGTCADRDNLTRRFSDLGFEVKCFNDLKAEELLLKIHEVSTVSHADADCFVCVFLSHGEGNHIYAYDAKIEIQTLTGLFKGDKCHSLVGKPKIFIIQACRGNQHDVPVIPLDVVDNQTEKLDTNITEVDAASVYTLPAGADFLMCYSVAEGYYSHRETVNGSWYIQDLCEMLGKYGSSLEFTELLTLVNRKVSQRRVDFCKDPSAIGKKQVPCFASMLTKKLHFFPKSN
The experiment in a line: inhibition of CASP6 peptide cleavage – biochemical, VEID-R110 fluorescence, cherry-pick, dose response (AID 720632).

The target of another test is Protein Tat (Human immunodeficiency virus type 1 group M subtype B (isolate HXB2)(HIV-1), UniProt P04608). The test is classed as functional.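 Also: tat binding to TAR RNA read out by fluorescence polarization.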
The target of test [12] is T5, Beta-2 adrenergic receptor (Homo sapiens, UniProt P07550). The experiment in a line: Dose response for HTS for Beta-2AR agonists via FAP method from Powderset1. Type of test: functional.
For test [13], the target named is T5, Beta-2 adrenergic receptor. Put plainly: ADRB2 activation measured by internalization – cell-based, FAP fluorogen, flow cytometry, cherry pick 1, dose response (AID 588763). Type of test: functional. For orientation: In flow cytometry, cells or beads pass a laser one at a time.
The target of test [14] is T2, Tyrosine-protein phosphatase non-receptor type 7. The experiment in a line: HePTP tyrosine phosphatase activity blockers – biochemical, absorbance, leukemia target, primary screen (AID 521). The test is classed as functional.
The target of another test is NADPH oxidase 1 (Homo sapiens, UniProt Q9Y5S8). Put plainly: Late-stage luminescence-based cell-based dose response assay to identify inhibitors of NADPH oxidase 1 (NOX1): Purchased analogs 2. The test is classed as functional.

Several values for one entry are separate records, joined by “and”; a condition that tells them apart may be missing. Identical values can stand only once. Activity calls are given as the source filed them.

T5 sequence (P07550 whole entry): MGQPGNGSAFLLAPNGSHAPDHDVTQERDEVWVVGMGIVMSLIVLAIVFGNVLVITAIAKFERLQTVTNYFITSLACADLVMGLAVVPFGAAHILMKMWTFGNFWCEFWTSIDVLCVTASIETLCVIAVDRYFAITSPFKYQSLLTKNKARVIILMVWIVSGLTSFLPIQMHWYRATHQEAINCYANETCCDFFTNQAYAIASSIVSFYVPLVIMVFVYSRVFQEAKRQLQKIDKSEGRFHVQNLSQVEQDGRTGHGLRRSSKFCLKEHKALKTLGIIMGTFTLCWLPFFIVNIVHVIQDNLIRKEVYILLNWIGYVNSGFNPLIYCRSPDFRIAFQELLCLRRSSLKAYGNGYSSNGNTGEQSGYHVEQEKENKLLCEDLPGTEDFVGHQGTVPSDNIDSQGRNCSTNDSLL
T1 sequence (Q07820 whole entry): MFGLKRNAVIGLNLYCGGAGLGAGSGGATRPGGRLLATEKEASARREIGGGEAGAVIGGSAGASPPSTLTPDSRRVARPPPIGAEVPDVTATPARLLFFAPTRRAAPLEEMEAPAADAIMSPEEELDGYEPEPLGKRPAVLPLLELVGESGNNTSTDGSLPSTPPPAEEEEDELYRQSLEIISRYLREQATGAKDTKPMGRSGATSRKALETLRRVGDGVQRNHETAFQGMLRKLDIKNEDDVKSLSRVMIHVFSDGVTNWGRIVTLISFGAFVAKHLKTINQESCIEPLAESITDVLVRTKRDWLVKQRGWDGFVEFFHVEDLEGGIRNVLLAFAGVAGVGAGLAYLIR
Ephrin type-A receptor 4, sequence (Q03137 whole entry): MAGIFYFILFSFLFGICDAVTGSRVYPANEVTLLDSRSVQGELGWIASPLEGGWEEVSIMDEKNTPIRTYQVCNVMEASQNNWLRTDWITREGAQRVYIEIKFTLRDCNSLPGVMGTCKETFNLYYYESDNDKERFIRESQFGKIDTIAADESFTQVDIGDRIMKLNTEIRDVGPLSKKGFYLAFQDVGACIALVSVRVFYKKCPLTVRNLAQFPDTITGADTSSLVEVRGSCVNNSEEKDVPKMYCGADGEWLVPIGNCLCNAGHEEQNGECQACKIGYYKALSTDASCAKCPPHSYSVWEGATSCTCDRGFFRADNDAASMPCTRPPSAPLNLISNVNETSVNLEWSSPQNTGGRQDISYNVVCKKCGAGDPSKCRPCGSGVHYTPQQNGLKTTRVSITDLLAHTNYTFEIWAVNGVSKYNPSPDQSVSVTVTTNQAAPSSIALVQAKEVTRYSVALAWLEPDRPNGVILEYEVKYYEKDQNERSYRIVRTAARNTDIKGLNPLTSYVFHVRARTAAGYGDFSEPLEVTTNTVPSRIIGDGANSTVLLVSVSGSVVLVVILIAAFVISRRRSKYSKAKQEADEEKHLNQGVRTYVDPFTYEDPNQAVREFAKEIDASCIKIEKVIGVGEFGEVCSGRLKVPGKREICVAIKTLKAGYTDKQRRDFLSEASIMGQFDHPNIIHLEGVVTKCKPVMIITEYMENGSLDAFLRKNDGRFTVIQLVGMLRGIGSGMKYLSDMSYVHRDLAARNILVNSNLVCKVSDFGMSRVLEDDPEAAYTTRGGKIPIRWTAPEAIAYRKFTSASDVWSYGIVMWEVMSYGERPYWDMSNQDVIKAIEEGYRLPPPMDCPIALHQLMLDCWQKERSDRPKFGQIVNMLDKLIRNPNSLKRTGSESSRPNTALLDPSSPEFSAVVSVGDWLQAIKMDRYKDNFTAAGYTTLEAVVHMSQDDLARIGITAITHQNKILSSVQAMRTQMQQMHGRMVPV
Estrogen receptor beta, sequence (Q92731 whole entry): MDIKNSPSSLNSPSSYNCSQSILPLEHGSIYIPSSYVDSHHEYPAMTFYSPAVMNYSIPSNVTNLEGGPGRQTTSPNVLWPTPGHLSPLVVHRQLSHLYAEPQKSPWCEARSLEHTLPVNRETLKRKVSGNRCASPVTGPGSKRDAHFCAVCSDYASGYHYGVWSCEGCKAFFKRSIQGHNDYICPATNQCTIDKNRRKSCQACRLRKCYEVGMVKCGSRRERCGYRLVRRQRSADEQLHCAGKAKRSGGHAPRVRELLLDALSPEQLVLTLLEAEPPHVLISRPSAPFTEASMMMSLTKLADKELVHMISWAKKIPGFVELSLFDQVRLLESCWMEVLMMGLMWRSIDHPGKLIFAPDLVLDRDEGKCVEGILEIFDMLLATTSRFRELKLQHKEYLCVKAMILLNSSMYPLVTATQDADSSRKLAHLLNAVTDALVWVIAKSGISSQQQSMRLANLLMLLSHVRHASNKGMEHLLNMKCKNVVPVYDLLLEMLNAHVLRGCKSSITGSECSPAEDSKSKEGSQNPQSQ
NADPH oxidase 1, sequence (Q9Y5S8 whole entry): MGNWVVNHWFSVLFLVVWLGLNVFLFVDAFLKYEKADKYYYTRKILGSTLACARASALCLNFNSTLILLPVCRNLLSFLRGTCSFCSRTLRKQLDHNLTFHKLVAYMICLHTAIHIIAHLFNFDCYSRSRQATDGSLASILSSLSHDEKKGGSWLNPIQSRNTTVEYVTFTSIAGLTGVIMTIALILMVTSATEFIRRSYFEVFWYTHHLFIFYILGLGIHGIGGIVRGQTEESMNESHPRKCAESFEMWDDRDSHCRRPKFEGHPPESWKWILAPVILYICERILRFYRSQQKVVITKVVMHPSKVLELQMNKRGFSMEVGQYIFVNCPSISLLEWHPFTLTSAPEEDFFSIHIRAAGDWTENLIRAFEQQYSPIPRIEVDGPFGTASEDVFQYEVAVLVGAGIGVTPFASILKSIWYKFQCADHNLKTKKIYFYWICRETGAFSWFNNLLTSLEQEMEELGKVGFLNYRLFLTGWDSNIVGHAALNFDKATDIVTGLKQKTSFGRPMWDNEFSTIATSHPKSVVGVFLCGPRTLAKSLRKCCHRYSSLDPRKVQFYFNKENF
Caspase-8, sequence (Q14790 217-374 limits assumed): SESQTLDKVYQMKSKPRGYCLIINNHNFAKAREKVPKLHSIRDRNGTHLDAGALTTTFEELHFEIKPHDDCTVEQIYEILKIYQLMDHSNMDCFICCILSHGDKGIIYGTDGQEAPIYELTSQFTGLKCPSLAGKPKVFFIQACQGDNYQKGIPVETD
Caspase-8, sequence (Q14790 385-479 limits assumed): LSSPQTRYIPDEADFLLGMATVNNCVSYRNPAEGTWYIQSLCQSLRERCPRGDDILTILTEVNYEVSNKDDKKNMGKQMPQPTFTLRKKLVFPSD
E3 ubiquitin-protein ligase Mdm2, sequence (Q00987 whole entry): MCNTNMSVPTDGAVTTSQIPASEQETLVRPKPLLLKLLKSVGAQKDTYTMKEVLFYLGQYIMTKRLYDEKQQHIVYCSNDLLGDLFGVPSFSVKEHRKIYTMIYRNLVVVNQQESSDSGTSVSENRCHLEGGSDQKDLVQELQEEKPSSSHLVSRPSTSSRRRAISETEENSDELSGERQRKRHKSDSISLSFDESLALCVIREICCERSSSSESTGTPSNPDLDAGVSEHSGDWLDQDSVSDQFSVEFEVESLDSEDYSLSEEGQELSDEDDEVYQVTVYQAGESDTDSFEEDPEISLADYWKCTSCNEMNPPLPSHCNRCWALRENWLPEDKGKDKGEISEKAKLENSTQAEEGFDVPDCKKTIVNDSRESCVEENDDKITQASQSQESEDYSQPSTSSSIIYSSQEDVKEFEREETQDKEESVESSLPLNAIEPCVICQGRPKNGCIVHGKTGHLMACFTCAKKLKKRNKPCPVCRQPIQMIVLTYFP
Protein Tat, sequence (P04608 whole entry): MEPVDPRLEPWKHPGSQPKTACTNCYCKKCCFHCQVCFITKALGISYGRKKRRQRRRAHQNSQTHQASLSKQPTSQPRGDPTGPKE
Bcl-2-like protein 1, sequence (Q07817 whole entry): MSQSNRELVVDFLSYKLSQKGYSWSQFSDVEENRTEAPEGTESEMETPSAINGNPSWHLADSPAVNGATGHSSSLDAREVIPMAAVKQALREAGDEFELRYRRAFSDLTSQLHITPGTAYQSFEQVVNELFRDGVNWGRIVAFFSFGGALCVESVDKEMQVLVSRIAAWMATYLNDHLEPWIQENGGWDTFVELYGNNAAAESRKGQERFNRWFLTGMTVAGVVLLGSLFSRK
Caspase-7, sequence (P55210 24-198 limits assumed): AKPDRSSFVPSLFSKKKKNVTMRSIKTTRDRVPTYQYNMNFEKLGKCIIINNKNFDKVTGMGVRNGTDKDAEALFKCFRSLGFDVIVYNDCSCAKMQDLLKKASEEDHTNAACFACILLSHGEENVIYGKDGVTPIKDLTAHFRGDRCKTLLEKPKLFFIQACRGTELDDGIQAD
Caspase-7, sequence (P55210 207-303 limits assumed): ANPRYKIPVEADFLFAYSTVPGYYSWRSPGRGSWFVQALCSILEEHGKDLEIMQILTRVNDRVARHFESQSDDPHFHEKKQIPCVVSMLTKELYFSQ
Muscarinic acetylcholine receptor M1, sequence (P08482 whole entry): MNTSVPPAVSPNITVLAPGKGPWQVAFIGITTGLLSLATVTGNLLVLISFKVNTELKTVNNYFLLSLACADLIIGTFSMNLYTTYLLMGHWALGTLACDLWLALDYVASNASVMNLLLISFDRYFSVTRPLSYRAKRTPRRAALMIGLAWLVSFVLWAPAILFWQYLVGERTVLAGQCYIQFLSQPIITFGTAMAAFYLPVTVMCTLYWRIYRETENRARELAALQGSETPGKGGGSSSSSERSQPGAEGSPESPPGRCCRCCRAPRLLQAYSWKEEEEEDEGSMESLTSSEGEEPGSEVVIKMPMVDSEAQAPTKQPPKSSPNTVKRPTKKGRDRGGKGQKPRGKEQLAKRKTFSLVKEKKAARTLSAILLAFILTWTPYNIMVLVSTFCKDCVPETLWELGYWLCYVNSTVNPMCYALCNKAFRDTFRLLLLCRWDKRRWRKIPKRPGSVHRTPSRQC

Turning to `Cn1cc(-c2ccc(CN3C(=O)C(=O)c4ccccc43)c(F)c2)cn1`, the EC50 in test [1] was 845 nM (active).
Turning to `O=C(CSc1n[nH]c(-c2ccccc2)n1)Nc1ccc(Br)cn1`, the IC50 in [2] was > 100 µM (active). Further, the CC50 in [3] was > 40 µM (active).
On to `O=C(NCc1ccccc1)c1ccc2nc(-c3ccco3)c(-c3ccco3)nc2c1`, for which the IC50 against Estrogen receptor beta is < 23 nM (not active); in test [4] it was 4.26 µM (active); on Ephrin type-A receptor 4 it was 11.1 µM (active); in test [5], 3.99 µM (active).
In the case of `COc1ccc(-c2cc(C(F)(F)F)nc(S(=O)(=O)CCCC(=O)Nc3cccnc3Cl)n2)cc1OC`, the AC50 was 11.6 µM (active) in test [6], 13.8 µM (active) in test [8] and 3.17 µM (active) in test [9]. In [7], the EC50 is on record as 25 µM (not active).
As for `Cc1ccc(C)c(NC(=O)CN(C)C(=O)c2cccc(-n3cccc3)c2)c1`, the IC50 in test [10] was 6.04 µM (active); in test [11], 10.9 µM (not active); at Bcl-2-like protein 1 it was > 109 µM (not active); at Protein Tat, > 100 µM (active). The AC50 is > 70 µM (inactive) at Caspase-7, > 70 µM (inactive) at Caspase-8 and 4.58 µM (active) at Caspase-6.
On to `Cc1ccc(OCC(=O)Nc2ccc(-c3nc4ncccc4o3)cc2)cc1`, for which the EC50 in [12] is 15.5 nM (active); in [13], 31.6 nM (active) and 61.1 nM (active). In addition, the IC50 in test [14] is reported as > 100 µM (not active).
Consider `CN(CCO)c1ccc(/C=N/Nc2c(F)c(F)nc(F)c2F)cc1`, for which, on NADPH oxidase 1, the IC50 was 1.11 µM (active).

The EC50 is the concentration needed to bring the measured effect to its halfway point. What is called IC50 is the point on the concentration scale where inhibition reaches its midpoint. In general, AC50 refers to the concentration at which the activity in the assay is half-maximal.
